pKi: −log10 of the molar value.
Columns and labels:
[1] = biological target: T1, human recombinant GABAAR containing α5β3γ2 subunits (benzodiazepine site) (Homo sapiens, UniProt P18507+P31644); assay: In vitro radioligand binding assay (α5-GABAAR Ki); conditions: inhibition of [3H]Ro15-1788 binding, membranes of L(tk−) cells expressing human α5β3γ2; read-out: α5-GABAAR Ki
T1 construct: expressed in transfected cells; host or cells: mouse L(tk−) cells, dexamethasone-inducible vector pMSGneo
Outline: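 Membranes from mouse L(tk^−) cells stably expressing human α5β3γ2 GABAAR incubated 1 h at 4° C with 4 nM [^3H]Ro15-1788 and test compound; nonspecific binding with 1 μM TP003. Filter-bound radioactivity counted; Ki from IC50 by Cheng-Prusoff using measured Kd.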

[2] = biological target: T2, human α5β3γ2 GABAARs in mouse L(tk−) cells (Homo sapiens, UniProt P18507+P31644); assay: In vitro electrophysiological recording assay (α5-GABAAR relative efficacy), QPatch; assay type: cell-based; conditions: GABA EC10-20
T2 construct: expressed in transfected cells; host or cells: mouse L(tk−) cells, dexamethasone-inducible vector pMSGneo
T2 sequence (P31644 32-462): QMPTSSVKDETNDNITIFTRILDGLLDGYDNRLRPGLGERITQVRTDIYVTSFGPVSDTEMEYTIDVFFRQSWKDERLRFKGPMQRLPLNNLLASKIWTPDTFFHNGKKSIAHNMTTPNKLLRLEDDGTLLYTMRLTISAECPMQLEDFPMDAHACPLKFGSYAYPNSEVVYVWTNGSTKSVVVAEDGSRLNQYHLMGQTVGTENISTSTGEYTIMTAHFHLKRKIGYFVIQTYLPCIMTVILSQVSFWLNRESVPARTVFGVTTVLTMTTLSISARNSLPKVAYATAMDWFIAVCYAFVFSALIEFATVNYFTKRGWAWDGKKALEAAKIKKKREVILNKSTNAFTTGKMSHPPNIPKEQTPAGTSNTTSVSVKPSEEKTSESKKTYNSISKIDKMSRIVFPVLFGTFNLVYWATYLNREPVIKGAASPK
T2 sequence (P28472 26-473 partner): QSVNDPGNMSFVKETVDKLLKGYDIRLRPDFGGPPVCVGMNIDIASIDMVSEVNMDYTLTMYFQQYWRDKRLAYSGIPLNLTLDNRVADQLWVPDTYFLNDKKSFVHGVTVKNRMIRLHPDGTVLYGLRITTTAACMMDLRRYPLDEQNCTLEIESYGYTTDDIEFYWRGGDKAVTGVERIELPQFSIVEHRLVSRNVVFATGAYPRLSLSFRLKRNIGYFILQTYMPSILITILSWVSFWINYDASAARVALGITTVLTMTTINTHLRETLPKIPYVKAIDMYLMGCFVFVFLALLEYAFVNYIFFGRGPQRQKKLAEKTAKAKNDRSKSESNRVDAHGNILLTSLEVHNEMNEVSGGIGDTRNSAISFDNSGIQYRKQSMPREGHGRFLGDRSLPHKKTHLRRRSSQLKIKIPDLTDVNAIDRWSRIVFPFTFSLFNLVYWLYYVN
T2 sequence (P18507 40-475): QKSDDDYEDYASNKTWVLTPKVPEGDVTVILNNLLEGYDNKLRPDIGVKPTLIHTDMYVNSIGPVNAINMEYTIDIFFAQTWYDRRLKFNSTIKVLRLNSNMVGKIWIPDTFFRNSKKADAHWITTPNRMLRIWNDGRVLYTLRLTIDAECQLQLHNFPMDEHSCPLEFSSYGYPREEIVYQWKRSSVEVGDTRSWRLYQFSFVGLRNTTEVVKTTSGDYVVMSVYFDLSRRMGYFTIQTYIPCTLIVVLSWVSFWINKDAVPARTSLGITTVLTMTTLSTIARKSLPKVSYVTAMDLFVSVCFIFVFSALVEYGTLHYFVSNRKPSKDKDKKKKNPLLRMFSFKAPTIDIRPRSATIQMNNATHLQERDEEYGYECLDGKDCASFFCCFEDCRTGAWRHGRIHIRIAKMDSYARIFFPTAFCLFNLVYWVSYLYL
From the text: Mouse L(tk^−) cells stably expressing human α1β3γ2, α2β3γ2, α3β3γ2, α5β3γ2 GABAARs generated by transfection of the individual subunits in the dexamethasone-inducible expression vector pMSGneo in mouse L(tk^−) cells (Hadingham et al., 1993, Mol. Pharmacol. 43:970-975 and 1993, Mol. Pharmacol. 44:1211-1218) were used for binding and functional assays. For certain compounds, HEK293 cells stable expressing the human α1β3γ2L, α2β3γ2L, α3β3γ2L and α5β3γ2L GABAA receptors were used to evaluate their functional effects in a SyncroPatch electrophysiology assay.
For QPatch electrophysiology testing, 1 μM dexamethasone was added to the culture medium of L(tk^−) cells 24 hours before the recordings were performed. Cells were typically used for electrophysiology experiments 72-96 hours after splitting.
The efficacy of modulators was evaluated using either the automated patch-clamp platform QPatch16 (Sophion, Copenhagen, Denmark) or the SyncroPatch 384i (Nanion Technologies, Germany). Cells were harvested from flasks by enzymatic dissociation and re-suspended in serum-free medium.
For QPatch recordings, all experiments were carried out at room temperature (20-22° C.) using a standard whole cell procedure and physiological solutions. Gigaseals were formed upon execution of a combined suction/voltage protocol with subsequent increased suction leading to the whole-cell configuration. The currents recorded were acquired at 1 KHz and filtered at 0.3 KHz using a Bessel filter. Whole-cell currents were measured at a holding potential of −65 mV.
For QPatch recordings, the extracellular solution contained of (in mM): 145 NaCl, 4 KCl, 1 MgCl2, 2CaCl2, 10 HEPES, 10 D-glucose (pH 7.4), and the intracellular solution consisted of (in mM): 96 KCl, 28 CsCl, 25 KOH, 4.3 CaCl2), 1.4 MgCl2, 10 EGTA, HEPES, 3 MgATP (pH 7.2). The osmolarities of the extracellular and intracellular solutions were 305 and 295 mOsm respectively.
The effects of modulators were evaluated in the presence of a submaximal GABA concentration, giving typically 10-20% activation (GABA EC10-20) of the response elicited by a saturating GABA concentration. For QPatch recordings, to check and ensure baseline current stability before compound addition, five consecutive applications of GABA EC10-20 alone (each application with a 2 s duration, separated by minimum 1 min wash off periods) were performed before compound addition. The test compound was applied using the pipetting system of the QPatch system 1 min at least prior to co-application with GABA EC10-20. For SyncroPatch recordings, GABA EC20 alone was applied three times (1 s long applications, with wash steps in-between) before compound addition. This was followed by a 1-2 min pre-incubation with the test compound and then re-application of GABA EC10-20 in the presence of the compound. Finally, following a further wash step, a saturating concentration of GABA was applied, allowing the accurate evaluation for each cell of the percentage baseline activation elicited by the submaximal GABA applied.
The compounds were first dissolved in DMSO as a 10 mM stock and then further diluted to the testing concentrations so that the final DMSO concentration in the extracellular recording solution was kept constant at 0.1% for the QPatch recordings, or 0.2% for the SyncroPatch recordings.
The % efficacy of modulators was determined from the GABA elicited currents recorded in the presence and absence of the test compound, using the formula:
[((compound peak current−leak)−(GABA peak current−leak))/(GABA peak current−leak)]*100,
where ‘leak’ is the leak baseline current at −65 mV, ‘compound peak current’ is the current elicited by co-application of compound and GABA, and ‘GABA peak current’ is the current elicited by GABA alone during the 5th GABA application. The results were presented as ‘relative efficacy’ for each compound generally at a concentration equal or higher than 100 times their determined Ki. […]

T1 sequence (P31644 32-462): as the sequence (P31644 32-462) above
T1 sequence (P28472 26-473 partner): as the sequence (P28472 26-473 partner) above
T1 sequence (P18507 40-475): as the sequence (P18507 40-475) above

| pKi [1] | α5-GABAAR Relative Efficacy (to DMCM), Qpatch ([2]; Conc 0.3 μM) | SMILES | other results |
| --- | --- | --- | --- |
| 9.30 | – | COc1nc(-c2ccc(NC(C)=O)nc2)cnc1NC(=O)c1c(-c2ccccc2)noc1C [Example 147, N-[5-(6-Acetamido-3-pyridyl)-3-methoxy-pyrazin-2-yl]-5-methyl-3-phenyl-isoxazole-4-carboxamide] | α5-GABAAR Relative Efficacy (to DMCM), Qpatch ([2]; Conc 0.1 μM): −0.67 |
| 8.09 | – | COc1nc(-c2cncnc2OC)ccc1NC(=O)c1c(-c2ccccc2)noc1C [Example 93, N-(2-Methoxy-6-(4-methoxypyrimidin-5-yl)pyridin-3-yl)-5-methyl-3-phenyl-isoxazole-4-carboxamide] | α5-GABAAR Relative Efficacy (to DMCM), Qpatch ([2]; Conc 1 μM): −0.73 |
| 8.52 | −0.66 | COc1nc(-c2cnc(N3CCCC(CO)C3)nc2)ccc1NC(=O)c1c(-c2ccccc2)noc1C (centres unmarked) [Example 92, N-(6-(2-(3-(Hydroxymethyl)piperidin-1-yl)pyrimidin-5-yl)-2-methoxypyridin-3-yl)-5-methyl-3-phenylisoxazole-4-carboxamide] | – |
| 7.74 | – | COc1nc(-c2nnco2)ccc1NC(=O)c1c(-c2ccccc2)noc1C [Example 58, N-[2-Methoxy-6-(1,3,4-oxadiazol-2-yl)-3-pyridyl]-5-methyl-3-phenyl-isoxazole-4-carboxamide] | α5-GABAAR Relative Efficacy (to DMCM), Qpatch ([2]; Conc 3 μM): −0.79 |
| 7.79 | – | COc1nc(-c2ccc3[nH]c(=O)n(C)c3c2)ccc1NC(=O)c1c(-c2ccccc2)noc1C [Example 77, N-(2-Methoxy-6-(3-methyl-2-oxo-2,3-dihydro-1H-benzo[d]imidazol-5-yl)pyridin-3-yl)-5-methyl-3-phenylisoxazole-4-carboxamide] | α5-GABAAR Relative Efficacy (to DMCM), Qpatch ([2]; Conc 3 μM): −0.22 |
| 8.92 | −0.65 | COc1nc(-c2cnc(N(C)C)nc2)ccc1NC(=O)c1c(-c2ccccc2)noc1C [Example 45, N-(6-(2-(Dimethylamino)pyrimidin-5-yl)-2-methoxypyridin-3-yl)-5-methyl-3-phenylisoxazole-4-carboxamide] | – |
| 8.29 | – | COc1nc(-c2cnc(N)cn2)cnc1NC(=O)c1c(-c2ccccc2)noc1C [Example 150, N-[5-(5-Aminopyrazin-2-yl)-3-methoxy-pyrazin-2-yl]-5-methyl-3-phenyl-isoxazole-4-carboxamide] | α5-GABAAR Relative Efficacy (to DMCM), Qpatch ([2]; Conc 1 μM): −0.83 |
| 8.28 | – | COc1nc(-c2ccc(=O)n(C)c2)cnc1NC(=O)c1c(-c2ccccc2)noc1C [Example 149, N-[3-Methoxy-5-(1-methyl-6-oxo-3-pyridyl)pyrazin-2-yl]-5-methyl-3-phenyl-isoxazole-4-carboxamide] | α5-GABAAR Relative Efficacy (to DMCM), Qpatch ([2]; Conc 1 μM): −0.66 |
| 7.47 | – | CCOc1ncc(-c2ccc(NC(=O)c3c(C)nnn3-c3ccccc3)c(OC)n2)cn1 [Example 162, N-(6-(2-Ethoxypyrimidin-5-yl)-2-methoxypyridin-3-yl)-4-methyl-1-phenyl-1H-1,2,3-triazole-5-carboxamide] | α5-GABAAR Relative Efficacy (to DMCM), Qpatch ([2]; Conc 3 μM): −0.90 |
| 9.22 | – | CNC(=O)c1ncc(-c2ccc(NC(=O)c3c(-c4ccccc4)noc3C)c(OC)n2)cn1 [Example 75, N-[2-Methoxy-6-[2-(methylcarbamoyl)pyrimidin-5-yl]-3-pyridyl]-5-methyl-3-phenyl-isoxazole-4-carboxamide] | α5-GABAAR Relative Efficacy (to DMCM), Qpatch ([2]; Conc 0.1 μM): −0.92 |
| 8.64 | −0.64 | COc1nc(-c2cncnc2)cnc1NC(=O)c1c(-c2ccccc2)noc1C [Example 56, N-(3-Methoxy-5-(pyrimidin-5-yl)pyrazin-2-yl)-5-methyl-3-phenylisoxazole-4-carboxamide] | – |
| 8.15 | – | COc1cc(-c2cnn(C)c2)cnc1NC(=O)c1c(-c2ccccc2)noc1C [Example 15, N-[3-Methoxy-5-(1-methylpyrazol-4-yl)-2-pyridyl]-5-methyl-3-phenyl-isoxazole-4-carboxamide] | α5-GABAAR Relative Efficacy (to DMCM), Qpatch ([2]; Conc 1 μM): −0.19 |
| 8.92 | −0.80 | COc1nc(-c2ccc(CO)nc2)cnc1NC(=O)c1c(-c2ccccc2)noc1C [Example 148, N-[5-[6-(Hydroxymethyl)-3-pyridyl]-3-methoxy-pyrazin-2-yl]-5-methyl-3-phenyl-isoxazole-4-carboxamide] | – |
| 7.33 | – | COc1ccc(-c2ccc(NC(=O)c3c(-c4ccccc4)noc3C)c(OC)n2)nn1 [Example 128, N-[2-Methoxy-6-(6-methoxypyridazin-3-yl)-3-pyridyl]-5-methyl-3-phenyl-isoxazole-4-carboxamide] | α5-GABAAR Relative Efficacy (to DMCM), Qpatch ([2]; Conc 10 μM): −0.19 |
| 8.70 | −0.77 | COc1nc(-c2cncnc2)ccc1NC(=O)c1c(-c2ccccc2)noc1C [Example 7, N-(2-Methoxy-6-pyrimidin-5-yl-3-pyridyl)-5-methyl-3-phenyl-isoxazole-4-carboxamide] | – |
| 8.29 | – | COc1nc(-c2cccc3nccn23)ccc1NC(=O)c1c(-c2ccccc2)noc1C [Example 30, N-(6-Imidazo[1,2-a]pyridin-5-yl-2-methoxy-3-pyridyl)-5-methyl-3-phenyl-isoxazole-4-carboxamide] | α5-GABAAR Relative Efficacy (to DMCM), Qpatch ([2]; Conc 1 μM): −0.42 |
| 8.77 | −0.83 | COc1nc(-n2cncc2CN(C)C)ccc1NC(=O)c1c(-c2ccccc2)noc1C [Example 153, N-[6-[5-[(Dimethylamino)methyl]imidazol-1-yl]-2-methoxy-3-pyridyl]-5-methyl-3-phenyl-isoxazole-4-carboxamide] | – |
| 8.64 | −0.83 | COc1nc(-c2ccc(CO)nc2)ccc1NC(=O)c1c(-c2ccccc2)noc1C [Example 27, N-[6-[6-(Hydroxymethyl)-3-pyridyl]-2-methoxy-3-pyridyl]-5-methyl-3-phenyl-isoxazole-4-carboxamide] | – |
| 8.05 | – | Cc1onc(-c2ccccc2)c1C(=O)Nc1ccc(-n2ccnc2)nc1N(C)C [Example 176, N-[2-(Dimethylamino)-6-imidazol-1-yl-3-pyridyl]-5-methyl-3-phenyl-isoxazole-4-carboxamide] | α5-GABAAR Relative Efficacy (to DMCM), Qpatch ([2]; Conc 1 μM): −0.36 |
| 7.93 | – | COc1nc(-c2ncco2)ccc1NC(=O)c1c(-c2ccccc2)noc1C [Example 123, N-(2-Methoxy-6-oxazol-2-yl-3-pyridyl)-5-methyl-3-phenyl-isoxazole-4-carboxamide] | α5-GABAAR Relative Efficacy (to DMCM), Qpatch ([2]; Conc 3 μM): −0.48 |
| 7.54 | – | COc1nc(-c2cnn(-c3ccncc3)c2)ccc1NC(=O)c1c(-c2ccccc2)noc1C [Example 110, N-(2-Methoxy-6-(1-(pyridin-4-yl)-1H-pyrazol-4-yl)pyridin-3-yl)-5-methyl-3-phenylisoxazole-4-carboxamide] | α5-GABAAR Relative Efficacy (to DMCM), Qpatch ([2]; Conc 3 μM): −0.53 |

| SMILES | pKi [1] | α5-GABAAR Relative Efficacy (to DMCM), Qpatch ([2]; Conc 0.3 μM) | other results |
| --- | --- | --- | --- |
| CNCCNC(=O)c1ncc(-c2ccc(NC(=O)c3c(-c4ccccc4)noc3C)c(OC)n2)cn1.Cl [Example 173, N-[2-Methoxy-6-[2-[2-(methylamino)ethylcarbamoyl]pyrimidin-5-yl]-3-pyridyl]-5-methyl-3-phenyl-isoxazole-4-carboxamide hydrochloride] | 9.52 | – | α5-GABAAR Relative Efficacy (to DMCM), Qpatch ([2]; Conc 0.1 μM): −0.88 |

From patent US20240425491A1, “HETEROARYL COMPOUNDS USEFUL IN THE TREATMENT OF COGNITIVE DISORDERS” (University College Cardiff Consultants Limited, priority 2021, published 2024)
